Values after ≈ are worked out from the molar mass of the structure shown.
tested on: A. baumannii 49; assay: In vitro antibacterial activity test (broth microdilution); type: cell-based; details: Acinetobacter baumannii; A. baumannii 49; read-out: MIC90
Outline: (§1)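 Stocks at 10,240 ug/mL in DMSO, serially diluted in DMSO then water to final 0.0626–128 ug/mL (2.5% V/V DMSO). CLSI broth microdilution; MIC90, ug/mL.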

Compound | MIC90
C[C@H](O/N=C(\C(=O)N[C@@H]1C(=O)N2C(C(=O)[O-])=C(/C=C/C[n+]3cnc(N)c(NCCNC(=O)c4cc(=O)c(O)cn4O)c3)CSC12)c1csc(N)n1)C(=O)O (stereo partly shown) [Compound 9] | > 128 µg/mL

tested on: P. aeruginosa 6065Y; assay: as above; type: cell-based; details: Pseudomonas aeruginosa, read-out: MIC90
Outline: as §1

Compound | MIC90
C[C@H](O/N=C(\C(=O)N[C@@H]1C(=O)N2C(C(=O)[O-])=C(/C=C/C[n+]3cnc(N)c(NCCNC(=O)c4cc(=O)c(O)cn4O)c3)CSC12)c1csc(N)n1)C(=O)O (stereo partly shown) [Compound 9] | 0.25 µg/mL (≈ 0.318 µM)

tested on: E. cloacae β19; assay: as above; type: cell-based; details: Enterobacter cloacae, read-out: MIC90
Outline: as §1

Compound | MIC90
C[C@H](O/N=C(\C(=O)N[C@@H]1C(=O)N2C(C(=O)[O-])=C(/C=C/C[n+]3cnc(N)c(NCCNC(=O)c4cc(=O)c(O)cn4O)c3)CSC12)c1csc(N)n1)C(=O)O (stereo partly shown) [Compound 9] | 2 µg/mL (≈ 2.55 µM)

tested on: M. catarrhalis 2524; assay: as above; type: cell-based; details: Moraxella catarrhalis; M. catarrhalis 2524; read-out: MIC90
Outline: as §1

Compound | MIC90
C[C@H](O/N=C(\C(=O)N[C@@H]1C(=O)N2C(C(=O)[O-])=C(/C=C/C[n+]3cnc(N)c(NCCNC(=O)c4cc(=O)c(O)cn4O)c3)CSC12)c1csc(N)n1)C(=O)O (stereo partly shown) [Compound 9] | 0.5 µg/mL (≈ 0.636 µM)

tested on: K. pneumoniae β9; assay: as above; type: cell-based; details: Klebsiella pneumoniae, K. pneumoniae β9; read-out: MIC90
Outline: as §1

Compound | MIC90
C[C@H](O/N=C(\C(=O)N[C@@H]1C(=O)N2C(C(=O)[O-])=C(/C=C/C[n+]3cnc(N)c(NCCNC(=O)c4cc(=O)c(O)cn4O)c3)CSC12)c1csc(N)n1)C(=O)O (stereo partly shown) [Compound 9] | 1 µg/mL (≈ 1.27 µM)

tested on: P. aeruginosa 40; assay: as above; type: cell-based; details: Pseudomonas aeruginosa, 40, P. aeruginosa 40; read-out: MIC90
Outline: as §1

Compound | MIC90
C[C@H](O/N=C(\C(=O)N[C@@H]1C(=O)N2C(C(=O)[O-])=C(/C=C/C[n+]3cnc(N)c(NCCNC(=O)c4cc(=O)c(O)cn4O)c3)CSC12)c1csc(N)n1)C(=O)O (stereo partly shown) [Compound 9] | < 0.0625 µg/mL

tested on: E. coli AG100; assay: as above; type: cell-based; details: Escherichia coli, AG100, E. coli AG100; read-out: MIC90
Outline: as §1

Compound | MIC90
C[C@H](O/N=C(\C(=O)N[C@@H]1C(=O)N2C(C(=O)[O-])=C(/C=C/C[n+]3cnc(N)c(NCCNC(=O)c4cc(=O)c(O)cn4O)c3)CSC12)c1csc(N)n1)C(=O)O (stereo partly shown) [Compound 9] | < 0.0625 µg/mL

tested on: P. aeruginosa 37; assay: as above; type: cell-based; details: Pseudomonas aeruginosa, 37, P. aeruginosa 37; read-out: MIC90
Outline: as §1

Compound | MIC90
C[C@H](O/N=C(\C(=O)N[C@@H]1C(=O)N2C(C(=O)[O-])=C(/C=C/C[n+]3cnc(N)c(NCCNC(=O)c4cc(=O)c(O)cn4O)c3)CSC12)c1csc(N)n1)C(=O)O (stereo partly shown) [Compound 9] | 0.25 µg/mL (≈ 0.318 µM)

tested on: K. pneumoniae 2011E; assay: as above; type: cell-based; details: Klebsiella pneumoniae, 2011E, K. pneumoniae 2011E; read-out: MIC90
Outline: as §1

Compound | MIC90
C[C@H](O/N=C(\C(=O)N[C@@H]1C(=O)N2C(C(=O)[O-])=C(/C=C/C[n+]3cnc(N)c(NCCNC(=O)c4cc(=O)c(O)cn4O)c3)CSC12)c1csc(N)n1)C(=O)O (stereo partly shown) [Compound 9] | 0.125 µg/mL (≈ 0.159 µM)

tested on: K. pneumoniae β13; assay: as above; type: cell-based; details: Klebsiella pneumoniae, K. pneumoniae β13; read-out: MIC90
Outline: as §1

Compound | MIC90
C[C@H](O/N=C(\C(=O)N[C@@H]1C(=O)N2C(C(=O)[O-])=C(/C=C/C[n+]3cnc(N)c(NCCNC(=O)c4cc(=O)c(O)cn4O)c3)CSC12)c1csc(N)n1)C(=O)O (stereo partly shown) [Compound 9] | 0.25 µg/mL (≈ 0.318 µM)

tested on: K. pneumoniae β11; assay: as above; type: cell-based; details: Klebsiella pneumoniae; K. pneumoniae β11; read-out: MIC90
Outline: as §1

Compound | MIC90
C[C@H](O/N=C(\C(=O)N[C@@H]1C(=O)N2C(C(=O)[O-])=C(/C=C/C[n+]3cnc(N)c(NCCNC(=O)c4cc(=O)c(O)cn4O)c3)CSC12)c1csc(N)n1)C(=O)O (stereo partly shown) [Compound 9] | > 128 µg/mL

tested on: A. baumannii 52; assay: as above; type: cell-based; details: Acinetobacter baumannii; A. baumannii 52; read-out: MIC90
Outline: as §1

Compound | MIC90
C[C@H](O/N=C(\C(=O)N[C@@H]1C(=O)N2C(C(=O)[O-])=C(/C=C/C[n+]3cnc(N)c(NCCNC(=O)c4cc(=O)c(O)cn4O)c3)CSC12)c1csc(N)n1)C(=O)O (stereo partly shown) [Compound 9] | > 128 µg/mL

tested on: P. aeruginosa 1912E; assay: as above; type: cell-based; details: Pseudomonas aeruginosa, 1912E, read-out: MIC90
Outline: as §1

Compound | MIC90
C[C@H](O/N=C(\C(=O)N[C@@H]1C(=O)N2C(C(=O)[O-])=C(/C=C/C[n+]3cnc(N)c(NCCNC(=O)c4cc(=O)c(O)cn4O)c3)CSC12)c1csc(N)n1)C(=O)O (stereo partly shown) [Compound 9] | 0.25 µg/mL (≈ 0.318 µM)

tested on: P. aeruginosa 43; assay: as above; type: cell-based; details: Pseudomonas aeruginosa; P. aeruginosa 43; read-out: MIC90
Outline: as §1

Compound | MIC90
C[C@H](O/N=C(\C(=O)N[C@@H]1C(=O)N2C(C(=O)[O-])=C(/C=C/C[n+]3cnc(N)c(NCCNC(=O)c4cc(=O)c(O)cn4O)c3)CSC12)c1csc(N)n1)C(=O)O (stereo partly shown) [Compound 9] | 0.25 µg/mL (≈ 0.318 µM)

tested on: K. pneumoniae β10; assay: as above; type: cell-based; details: Klebsiella pneumoniae; K. pneumoniae β10; read-out: MIC90
Outline: as §1

Compound | MIC90
C[C@H](O/N=C(\C(=O)N[C@@H]1C(=O)N2C(C(=O)[O-])=C(/C=C/C[n+]3cnc(N)c(NCCNC(=O)c4cc(=O)c(O)cn4O)c3)CSC12)c1csc(N)n1)C(=O)O (stereo partly shown) [Compound 9] | 0.125 µg/mL (≈ 0.159 µM)

tested on: K. pneumoniae β14; assay: as above; type: cell-based; details: Klebsiella pneumoniae, read-out: MIC90
Outline: as §1

Compound | MIC90
C[C@H](O/N=C(\C(=O)N[C@@H]1C(=O)N2C(C(=O)[O-])=C(/C=C/C[n+]3cnc(N)c(NCCNC(=O)c4cc(=O)c(O)cn4O)c3)CSC12)c1csc(N)n1)C(=O)O (stereo partly shown) [Compound 9] | 64 µg/mL (≈ 81.4 µM)

tested on: E. coli β4; assay: as above; type: cell-based; details: Escherichia coli, read-out: MIC90
Outline: as §1

Compound | MIC90
C[C@H](O/N=C(\C(=O)N[C@@H]1C(=O)N2C(C(=O)[O-])=C(/C=C/C[n+]3cnc(N)c(NCCNC(=O)c4cc(=O)c(O)cn4O)c3)CSC12)c1csc(N)n1)C(=O)O (stereo partly shown) [Compound 9] | 1 µg/mL (≈ 1.27 µM)

tested on: A. calcoaceticus ATCC15473; assay: as above; type: cell-based; details: Acinetobacter calcoaceticus; A. calcoaceticus ATCC15473; read-out: MIC90
Outline: as §1

Compound | MIC90
C[C@H](O/N=C(\C(=O)N[C@@H]1C(=O)N2C(C(=O)[O-])=C(/C=C/C[n+]3cnc(N)c(NCCNC(=O)c4cc(=O)c(O)cn4O)c3)CSC12)c1csc(N)n1)C(=O)O (stereo partly shown) [Compound 9] | 0.5 µg/mL (≈ 0.636 µM)

tested on: A. baumannii 46; assay: as above; type: cell-based; details: Acinetobacter baumannii; A. baumannii 46; read-out: MIC90
Outline: as §1

Compound | MIC90
C[C@H](O/N=C(\C(=O)N[C@@H]1C(=O)N2C(C(=O)[O-])=C(/C=C/C[n+]3cnc(N)c(NCCNC(=O)c4cc(=O)c(O)cn4O)c3)CSC12)c1csc(N)n1)C(=O)O (stereo partly shown) [Compound 9] | 0.5 µg/mL (≈ 0.636 µM)

— US9630977B2, “Cephalosporin derivatives and pharmaceutical compositions thereof” (Legochem Biosciences, Inc., priority 2011, dated 2017)
